The text below walks through data of US10251891B2, “Aprepitant oral liquid formulations” (InnoPharma, Inc., priority 2014, dated 2019).

The data set can be described thus: Solubility of aprepitant in water. It is filed as physicochemical. An excerpt:
Moreover, it should be recognized that the particle size of the active pharmaceutical ingredient may have important effects on the bioavailability of a formulation. Smaller particle sizes often have increased surface area and will thus dissolve faster than larger particles. However, decreasing the particle size will often increase agglomeration of the particles, and an increased surface area of smaller particles can result in faster degradation of the compound, e.g., due to oxidation and/or hydrolysis. The inventors have now found out that a fine particle size, and especially an average particle size between 0.250 and 0.400 micron, could achieve a desirable bioavailability (typically identical to that of commercially available solid oral aprepitant, EMEND). Such particle size may preferably be achieved using air-jet milling, ball milling, or mortar milling.

Turning to `C[C@@H](O[C@H]1OCCN(Cc2n[nH]c(=O)[nH]2)[C@H]1c1ccc(F)cc1)c1cc(C(F)(F)F)cc(C(F)(F)F)c1` [Aprepitant, 5-([(2R,3S)-2-((R)-1-[3,5-bis(trifluoromethyl)phenyl]ethoxy)-3-(4-fluoro-phenyl)morpholino]methyl)-1H-1,2,4-triazol-3(2H)-one], the solubility in water entry is “practically insoluble in water”.
